Data published in patent US6998394B2, “Process for isolating physalins from plants and pharmaceutical compositions containing physalins” (Fundacao Oswaldo Cruz - FIOCRUZ, priority 1999, dated 2006).
Converted amounts (≈) assume the structure as drawn.

Columns and labels:
[1] = test system: TNFα production by macrophages; test: TNFα production by LPS-stimulated peritoneal macrophages (ELISA); type: cell-based; conditions: LPS 500 ng/ml, various concentrations, supernatants 4 hours after stimulation, FIG. 3A
Experimental: (§1) In a first test, thyoglycollate-elicited peritoneal macrophages were stimulated with LPS (500 ng/ml) in the presence of various concentrations of physalin B. Cell-free supernatants were collected 4 hours after stimulation and tested for TNα and IL-6 production by ELISA.

[2] = test system: trypomastigotes of Trypanosoma cruzi (Y strain); test: In vitro antitrypanosomial activity against T. cruzi trypomastigotes (count of viable parasites); type: cell-based
Experimental: In vitro studies using pure physalins are carried out with trypomastigotes of Trypanosoma cruzi.
T. cruzi Y strain is maintained in MK2 strain cell culture in a RPMI medium+10% bovine fetal serum, at 37° C., under 5% CO2. This material is centrifuged during 15 minutes at 1500 rpm. Afterwards, the material is maintained in rest at 37° C. for 2 hours. The supernatant is centrifuged again during 30 minutes at 3000 rpm. The trypomastigotes (5×10^5/well) in RPMI medium with 10% bovine fetal serum and antibiotic are incubated in wells with different concentrations of physalin B or physalin D. After 24–48 hours, the viable parasites maintained at a temperature of 4° C. are counted. Each experiment was carried out in triplicate.

[3] = test system: ConA stimulated splenocytes; test: Proliferation of ConA-stimulated splenocytes (3H thymidine uptake); type: cell-based, BALB/c; conditions: ConA 1 μg/ml, several concentrations, FIG. 7
Experimental: In a fifth test, BALB/c spleen cells were stimulated with ConA (1 μg/ml) in the presence of several concentrations of physalin B. After 24 hours, cultures were pulsed with ^3H thymidine. Proliferation was assessed by measurement of thymidine uptake.

[4] = test system: IL-6 production by macrophages; test: IL-6 production by LPS-stimulated peritoneal macrophages (ELISA); type: cell-based; conditions: LPS 500 ng/ml, various concentrations, supernatants 4 hours after stimulation, FIG. 3B
Experimental: as §1

[5] = test system: Leishmania amazonensis in peritoneal macrophages; test: In vitro infection assay using peritoneal macrophages infected with Leishmania amazonensis; type: cell-based; conditions: 10 μg/ml
Experimental: Peritoneal macrophages were incubated during 2 hours at 37° C. in 24 wells plates with laminas. After washing to remove non-bound cells, the wells were incubated with stationary phase promastigotes of Leishmania amazonensis (parasites/macrophages in a ratio of 10:1). After 18 hours, the cultures were washed to remove the free parasites. After 24 hours, physalin B solution is added to the wells. The laminas are collected, fixed with methanol and dyed with Giemsa. The infection level was determined by counting parasite quantity and the infected macrophages percentage.

[6] = test system: promastigotes of Leishmania amazonensis; test: In vitro antileishmanicidal activity on promastigotes (MTT viability); type: cell-based; conditions: 20 μg/ml
Experimental: Stationary phase promastigotes of Leishmania amazonensis were obtained from parasite cultures in LIT medium with 10% bovine fetal serum. The assays were standardized in plates with 96 wells. Promastigotes were plaque harbored, in triplicate, in 100 μl of LIT medium. 10 μl of physalin B solution and 10 μl of a positive control (Amphotericin B) are added to the wells. Several dilutions were used. Parasite viability was determined after incubation with MTT by reading the absorbance at 570 nm in ELISA Microplate.

[7] = test system: IL-2 production by ConA stimulated splenocytes; test: IL-2 production by ConA-stimulated splenocytes (ELISA); type: cell-based, BALB/c; conditions: ConA 1 μg/ml, several concentrations, 24 hours, FIG. 8
Experimental: In a sixth test, BALB/c spleen cells were stimulated with ConA (1 μg/ml) in the presence of several concentrations of physalin B. Cell-free supernatants were collected 24 hours after stimulation and tested for IL-2 production by ELISA.

[8] = test system: BALB/c spleen cells or thyoglycollate-elicited peritoneal macrophages; test: Viability of spleen cells and peritoneal macrophages (MTT); type: cell-based; conditions: one day or three days of culturing, FIG. 9
Experimental: In the last test, BALB/c spleen cells or thyoglycollate-elicited peritoneal macrophages were cultured in the presence of several concentrations of physalin B. After one day (FIG. 9B) or three days (FIG. 9A) of culturing, plates were pulsed with MTT. Cell-viability was evaluated 2 hours later by optical density measuring at 570 nm.

[9] = test system: nitric oxide production by macrophages; test: Nitric oxide (nitrite) production by stimulated peritoneal macrophages (Griess assay); type: cell-based; conditions: 24 hours
Experimental: as §1, with “second” for “first”, “ng/ml), IFNγ (5 ng/ml), or IFNγ +LPS” for “ng/ml)”, “24” for “4”, “nitrite” for “TNα and IL-6”, “Griess assay.” for “ELISA.”
In a third test, thyoglycollate-elicited peritoneal macrophages were stimulated with LPS (500 ng/ml)+IFNγ (5 ng/ml). Physalin B (2 μg/ml) was added 0, 2, 4 and 6 hours after IFNγ+LPS stimulation. Cell-free supernatants were collected 24 hours after stimulation and tested for nitrite production by Griess assay. IFNγ+LPS was used as control.
In a fourth test, thyoglycollate-elicited peritoneal macrophages were stimulated with LPS (500 ng/ml)+IFNγ (5 ng/ml) in the presence of physalin B (2 μg/ml) or indomethacyn (1 μg/ml). Cell-free supernatants were collected 24 hours after stimulation and tested for nitrite production by Griess assay.

[10] = test system: human tumors like hepatoma, cervix uteri, lung and colon cells; conditions: in vivo and in vitro tests; cited from earlier work
[11] = test system: Trypanosoma brucei rhodesiense; conditions: commonly used trypanocidal drug; cited from earlier work

C[C@]12C(=O)C=CCC1=CC[C@@H]1[C@@H]2CC[C@]2(O)C(=O)O[C@@]3(C)[C@H]4C[C@]5(C)[C@@H](CO[C@@]16O[C@@]32[C@H]5C6=O)C(=O)O4 [Physalin B]
TNFα production by macrophages [1]: inhibitory properties | Mortality of Parasite (%) ([2]; dose 2.5 mg/ml, contact period 24 hours): 100% | Mortality of Parasite (%) ([2]; dose 2.5 mg/ml, contact period 48 hours): 100% | proliferation of ConA stimulated splenocytes (thymidine uptake) [3]: inhibits proliferation | IL-6 production by macrophages [4]: inhibitory properties | in vitro reduction in the infection of peritoneal macrophages [5]: 100% | parasite mortality [6]: 100% | IL-2 production by ConA stimulated splenocytes [7]: inhibits IL-2 production | concentrations at which non-toxic in vitro (cell viability, MTT) [8]: below 5 μg/ml | nitric oxide production, physalin B added at different times ([9]; 2 μg/ml added 0, 2, 4 and 6 hours after IFNγ+LPS stimulation, FIG. 5): time-dependence of the inhibition | nitric oxide production by macrophages ([9]; LPS 500 ng/ml, IFNγ 5 ng/ml or IFNγ+LPS, various concentrations, FIG. 4): inhibitory properties | nitric oxide production in the presence of indomethacyn ([9]; LPS+IFNγ, physalin B 2 μg/ml, indomethacyn 1 μg/ml, FIG. 6): addition of indomethacyn does not block the inhibition

C[C@@]12C[C@H]3OC(=O)[C@@H]1CO[C@@]14O[C@]5([C@H]2C1=O)[C@@](O)(CC[C@H]1[C@H]4C[C@@H](O)[C@@]2(O)CC=CC(=O)[C@]12C)C(=O)O[C@@]35C [Physalin D]
Mortality of Parasite (%) ([2]; dose 40 μg/ml, contact period 24 hours): 100% | Mortality of Parasite (%) ([2]; dose 40 μg/ml, contact period 48 hours): 100% | activity against human tumors [10]: active

C[C@@]12C[C@H]3OC(=O)[C@@H]1CO[C@]14O[C@]5([C@H]2C1=O)[C@@](O)(CC[C@H]1[C@H]4C[C@H]2O[C@]24CC=CC(=O)[C@]14C)C(=O)O[C@@]35C [physalin F]
activity against human tumors [10]: active

C[C@@H]1C(=O)O[C@@H]2C[C@@]1(C)C1C(=O)[C@]3(O)O[C@@]14[C@@](O)(CCC1C3[C@H](O)C=C3C=CCC(=O)[C@@]31C)C(=O)O[C@@]24C (stereo partly shown) [physalin L]
activity against human tumors [10]: active

C=C1C(=O)O[C@@H]2C[C@@]1(C)[C@@H]1C(=O)[C@]3(O)O[C@]14[C@@]2(C)OC(=O)[C@@]4(O)CC[C@H]1[C@H]3[C@H](O)C=C2CC=CC(=O)[C@@]21C [physalin A]
activity against human tumors [10]: active

Cc1ccc(C(=O)Nc2ccc(S(=O)(=O)O)c3cc(S(=O)(=O)O)cc(S(=O)(=O)O)c23)cc1NC(=O)c1cccc(NC(=O)Nc2cccc(C(=O)Nc3cc(C(=O)Nc4ccc(S(=O)(=O)O)c5cc(S(=O)(=O)O)cc(S(=O)(=O)O)c45)ccc3C)c2)c1 [suramin]
IC50 [11]: 0.0107 µg/mL (≈ 8.25 nM)
